Experiments:
[1] = target: T1, angiotensin-converting enzyme (Homo sapiens, UniProt P12821); experiment: Angiotensin I-converting enzyme-inhibiting activity by ACE Kit-WST (Dojindo Laboratories), residual activity; assay type: biochemical; conditions: for angiotensin-converting enzyme-inhibiting action brought about by the amino acid on addition of the cyclic dipeptide: cyclic dipeptide added in a given amount to the amino acid, summary of Tables 1 to 4
T1 construct: purchased Dojindo Laboratories ACE Kit-WST
T1 sequence (P12821 30-1306, species assumed): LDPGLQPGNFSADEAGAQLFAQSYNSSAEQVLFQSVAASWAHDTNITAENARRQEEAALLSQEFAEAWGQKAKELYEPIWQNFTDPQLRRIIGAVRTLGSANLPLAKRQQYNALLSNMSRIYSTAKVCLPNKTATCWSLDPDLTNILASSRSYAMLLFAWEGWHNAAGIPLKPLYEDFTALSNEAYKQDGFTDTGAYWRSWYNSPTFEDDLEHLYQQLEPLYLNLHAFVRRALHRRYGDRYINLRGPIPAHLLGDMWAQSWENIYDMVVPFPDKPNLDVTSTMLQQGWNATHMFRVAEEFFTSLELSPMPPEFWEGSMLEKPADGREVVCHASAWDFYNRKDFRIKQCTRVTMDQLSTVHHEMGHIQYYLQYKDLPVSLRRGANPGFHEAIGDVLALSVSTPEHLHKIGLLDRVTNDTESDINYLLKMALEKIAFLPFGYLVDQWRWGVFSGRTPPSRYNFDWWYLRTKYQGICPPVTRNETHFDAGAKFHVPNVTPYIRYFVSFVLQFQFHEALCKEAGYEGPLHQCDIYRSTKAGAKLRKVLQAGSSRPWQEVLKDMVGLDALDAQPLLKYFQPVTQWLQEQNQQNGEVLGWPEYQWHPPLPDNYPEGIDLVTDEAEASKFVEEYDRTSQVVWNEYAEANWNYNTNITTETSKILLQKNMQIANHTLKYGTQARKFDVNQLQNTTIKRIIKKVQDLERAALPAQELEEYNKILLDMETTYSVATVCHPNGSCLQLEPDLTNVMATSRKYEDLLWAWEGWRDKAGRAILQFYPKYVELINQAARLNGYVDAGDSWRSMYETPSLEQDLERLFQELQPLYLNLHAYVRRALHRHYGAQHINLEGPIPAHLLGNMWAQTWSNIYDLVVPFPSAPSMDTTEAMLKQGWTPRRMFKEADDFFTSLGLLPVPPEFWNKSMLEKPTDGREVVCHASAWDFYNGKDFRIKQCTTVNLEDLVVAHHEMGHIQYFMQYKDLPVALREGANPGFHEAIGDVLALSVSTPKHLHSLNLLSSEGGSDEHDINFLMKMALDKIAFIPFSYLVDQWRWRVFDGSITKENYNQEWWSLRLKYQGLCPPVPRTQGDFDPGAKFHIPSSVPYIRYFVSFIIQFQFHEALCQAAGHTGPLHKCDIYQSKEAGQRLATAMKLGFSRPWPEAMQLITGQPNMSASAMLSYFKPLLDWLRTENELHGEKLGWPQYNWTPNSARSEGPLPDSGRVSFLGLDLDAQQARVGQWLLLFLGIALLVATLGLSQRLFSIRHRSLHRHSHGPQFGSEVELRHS
Experimental: The enhancing effect of a cyclic dipeptide on the angiotensin-converting enzyme-inhibiting action of an amino acid was evaluated. Specifically, as for the inhibiting effects of amino acids and cyclic dipeptides, angiotensin I-converting enzyme-inhibiting activities were measured by using ACE Kit-WST (Dojindo Laboratories) according to the instruction manual attached to the kit. The amino acids were studied at a concentration of 1000 μM, 3000 μM, or 5000 μM, and the cyclic dipeptides were studied at a concentration of 20 μM, 50 μM, 100 μM, 250 μM, or 500 μM. Their-inhibiting activities were evaluated as the residual activity of angiotensin-converting enzyme calculated according to expression 1 given below. A control supplemented with distilled water instead of the aqueous cyclic dipeptide solution was used. Chemically synthesized samples were used as the cyclic dipeptides.
Residual activity (%)=(Absorbance at 450 nm from the cyclic dipeptide-added group/Absorbance from 450 nm from the control)×100 (Expression 1)

[2] = test system: spontaneously hypertensive rats; conditions: oral administration; cited from earlier work
[3] = amino acid alone, no cyclic dipeptide

Molecule | remaining activity at 1000 µM [1, 3] [%] | remaining activity at 5000 µM [1, 3] [%] | angiotensin-converting enzyme-inhibiting action brought about by the amino acid on addition of the cyclic dipeptide [1] | other results
C[C@@H](O)[C@H](N)C(=O)O [Threonine, threonine] | 86.6 | 69 |  | 
CC(C)C[C@H](N)C(=O)O [Leucine, leucine] | 83.2 | 43.3 |  | 
cyclo-glutamyl-histidine [Cyclo(Glu-His)] |  |  | enhanced | 
N=C(N)NCCC[C@H](N)C(=O)O [Arginine, arginine] | 84.8 | 60.2 |  | 
N[C@@H](Cc1c[nH]cn1)C(=O)O [histidine] |  |  |  | mean arterial pressure [2]: decrease
N[C@@H](Cc1ccc(O)cc1)C(=O)O [Tyrosine, tyrosine] | 94 |  |  | remaining activity at 3000 µM ([1]; amino acid alone, 3000 μM, no cyclic dipeptide): 90.6%
cyclo-arginyl-tyrosine [Cyclo(Arg-Tyr)] |  |  | enhanced | 
cyclo-isoleucyl-serine [Cyclo(Ile-Ser)] |  |  | enhanced | 

Source: patent US20180185313A1, “COMPOSITION COMPRISING AMINO ACID AND CYCLIC DIPEPTIDE” (SUNTORY HOLDINGS LIMITED, priority 2015, published 2018)
